Ends that are not written are not given here.
Target: T1, KV3.4 channels (Homo sapiens, UniProt Q03721)
T1 construct: expressed in transfected cells; host or cells: CHO cells, transient transfection with Lipofectamine 2000; cDNAs provided by Professor Goldstein, University of Chicago
T1 sequence (Q03721 1-635): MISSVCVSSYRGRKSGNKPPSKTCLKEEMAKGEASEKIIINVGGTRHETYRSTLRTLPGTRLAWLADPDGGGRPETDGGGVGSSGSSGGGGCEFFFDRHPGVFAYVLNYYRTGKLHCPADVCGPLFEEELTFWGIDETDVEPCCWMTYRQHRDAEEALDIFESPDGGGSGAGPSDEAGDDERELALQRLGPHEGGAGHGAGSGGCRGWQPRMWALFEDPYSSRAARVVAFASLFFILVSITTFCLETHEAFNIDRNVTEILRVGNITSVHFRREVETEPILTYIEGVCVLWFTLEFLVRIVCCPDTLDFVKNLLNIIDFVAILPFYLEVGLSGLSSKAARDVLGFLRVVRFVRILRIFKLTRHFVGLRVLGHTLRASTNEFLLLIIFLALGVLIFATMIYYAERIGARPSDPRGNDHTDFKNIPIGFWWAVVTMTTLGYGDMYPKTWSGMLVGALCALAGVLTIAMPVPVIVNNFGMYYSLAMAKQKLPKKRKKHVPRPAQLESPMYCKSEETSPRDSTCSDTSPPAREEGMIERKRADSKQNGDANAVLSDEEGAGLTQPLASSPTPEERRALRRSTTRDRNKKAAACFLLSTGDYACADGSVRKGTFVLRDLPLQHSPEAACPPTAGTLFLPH
T1 sequence (Q9Y6H6 1-103 partner): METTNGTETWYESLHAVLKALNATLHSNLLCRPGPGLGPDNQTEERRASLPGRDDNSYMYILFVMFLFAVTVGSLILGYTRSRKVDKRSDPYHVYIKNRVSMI
Assay: Whole-cell patch clamp of Kv3.4 currents in CHO cells transiently transfected with Kv3.4/MiRP2
Type: cell-based
Details: for percentage of inhibition of Kv3.4 currents: acute application in extracellular solution, peak of depolarizing pulse +60 mV, [(C0-C1)/C0] x 100, mean of 6 to 10 cells, three sessions
Description: KV3.4 and MiRP2 channel subunits were expressed in Chinese hamster ovary (CHO) cells by transient transfection. CHO cells were grown in 100 mm plastic Petri dishes in Dulbecco's Modified Eagle Medium containing 10% fetal bovine serum (FBS), non-essential amino acids (0.1 mm), penicillin (50 U/ml), and streptomycin (50 μg/ml) in a humidified atmosphere at 37°C with 5% CO2 (Miceli et al., [2015]). KV3.4 and MiRP2 cDNAs were kindly provided by the Professor Goldstein of the Department of Pediatrics and Institute for Molecular Pediatric Sciences, University of Chicago, USA. For electrophysiological experiments, cells were seeded on glass cover-slips (Glaswarenfabrik Karl Hecht KG, Sondheim, Germany) coated with poly-L-lysine (50 μg/mL) and transfected the next day with the appropriate cDNAs using Lipofectamine 2000 according to guidelines for transfection. We performed electrophysiological experiments 48 h after transfection.
Currents from CHO cells were recorded at room temperature 1-2 days after transfection. The extracellular solution contained the following (in mM): 138 NaCl, 5.4 KCl, 2 CaCl2, 1 MgCl2, 10 glucose and 10 HEPES, adjusted pH 7.4 with NaOH. The pipette solution contained (in mM) the following: 140 KCl, 2 MgCl2, 10 EGTA, 10 HEPES, 5 Mg-ATP, adjusted pH 7.4 with KOH (Miceli et al., [2015]). KV3.4 currents were measured by applying voltage steps from −100 mV to +60 mV from a holding potential of −80 mV (Abbott et al., [2001]). Moreover, the total outward K^+ currents were recorded in NGF-differentiated PC-12 cells using the extracellular solution contained the following (in mM): 150 NaCl, 5.4 KCl, 3 CaCl2, 1 MgCl2, 10 HEPES, adjusted pH 7.4 with NaOH. The pipette solution contained the following (in mM): 140 KCl, 2 MgCl2, 10 HEPES, 10 glucose, 10 EGTA, and 1 Mg-ATP adjusted at pH 7.4 with KOH (Diochot et al., [1998]). All experiments were performed in the presence of 50 nM tetrodotoxin (TTX) and 10 μ M nimodipine in the extracellular solution. To discriminate K^+ current components appropriate electrophysiological protocols were used (Pannaccione et al., [2007]). Steady-state activation and inactivation properties were measured by using appropriate protocols (Pannaccione et al., [2005]). Capacitive currents were elicited by 5-mV depolarizing pulses from −80 mV and acquired at a sampling rate of 50 kHz. The capacitance of the membrane was calculated according to the following equation: Cm = τc·Io/ΔEm (1-I∞/Io), where Cm is membrane capacitance, τc is the time constant of the membrane capacitance, Io is the maximum capacitance current value, ΔEm is the amplitude of the voltage step, and I∞ is the amplitude of the steady-state current. K^+ currents were recorded by patch-clamp technique in CHO and NGF-differentiated PC-12 cells using a commercially available amplifier (Axopatch 200B, Molecular Devices) and Digidata 1322A interface (Molecular Devices, USA). The whole-cell configuration of the patch-clamp technique was adopted using glass micropipettes with a resistance of 2.5-5.0 MΩ. Data were acquired and analyzed using the pClamp software (version 9, Molecular Devices).
For the acute treatment, each peptide has been added in the extracellular solution. For each cell, we first recorded K^+ currents as previously described, in the absence of peptides. After that, we switched from the extracellular solution without BDS-I peptides to the extracellular solution containing the BDS-I peptide. In these conditions, we recorded K^+ currents until the steady-state was reached. This protocol has been performed to test the effect on KV3.4 currents of each BDS-I fragment as well as of BDS-I[1-8scr].
To identify the smallest BDS-I amino acid sequence able to block Kv3.4 activity, we evaluated the effect of the newly synthesized BDS-I fragments in CHO cells transiently transfected with Kv3.4/MiRP2, by patch clamp technique in whole cell configuration. […]

[1] = peptide 100 nM, CHO cells transfected with Kv3.4/MiRP2

Row | Substance | effect on steady-state parameters for activation and inactivation of Kv3.4 currents (100 nM, Boltzmann fit) | time of peptide exposure at which steady-state of inhibition was reached (100 nM, currents at peak of repetitive (20 sec) depolarizing pulses (+60 mV)) | voltage dependence of Kv3.4 current inhibition (I-V relationship) (100 nM, peak current before and during application, pulses from +60 to −100 mV) | IC50 (CHO cells transiently transfected with KV3.4/MiRP2, inhibitory dose-response curve, % of inhibition normalized to controls) | percentage of inhibition of Kv3.4 currents [1] | ability to inhibit Kv3.4 currents (in words) (peptide 100 nM, acute application, CHO cells transfected with Kv3.4/MiRP2, whole-cell patch clamp)
1 | AAPAFASG [BDS-I[1-8]] | did not modify | 150 s | not voltage-dependent | 75 nM | more than 80% | –
2 | H-GSAFAPAA-OH [BDS-I[1-8scr]] | – | – | – | – | – | not able to modify KV3.4 activity
3 | blood depressing substance-I [BDS-I] | – | – | – | – | ~ 60% | –

Reference: PMC6629785, “Synthesis and Pharmacological Evaluation of a Novel Peptide Based on Anemonia sulcata BDS-I Toxin as a New KV3.4 Inhibitor Exerting a Neuroprotective Effect Against Amyloid-β Peptide” (Frontiers in Chemistry, 2019)
